This data set is described as follows: gradient 5% acetonitrile 3 min, to 50% in 2 min, to 85% in 15 min, held 3 min, 100 µL/min. The note with it: column: Zorbax Extend-C18 2.1 x 50 mm; eluents: water / acetonitrile, 0.1% formic acid. A digest of the protocol:
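Values are retention times taken from adduct peaks that software picked and an analyst inspected. The pure standards were run as mixtures of ~100 molecules on HPLC linked to a quadrupole time-of-flight mass spectrometer, in positive and negative ionization mode. A Zorbax Extend-C18 column (2.1 × 50 mm, 1.8 μm) was used at 100 μL/min with water and acetonitrile, each including 0.1% formic acid.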
`CCCNC(=O)C1CCN(c2nccnc2Sc2cccc(C)c2)CC1` came in with an RP-LC retention time of 946 s.

With `O=C(NC1CCN(c2cc(-c3cccs3)[nH]n2)C1)c1ccccc1Cl` (stereo unspecified), the RP-LC retention time worked out at 701 s.

Turning to `Cc1ccc(C(=O)N2C[C@@H]3C[C@H]2C[C@@H]3NS(=O)(=O)c2cccnc2)cc1F`, the RP-LC retention time was 716 s.

Molecule `CCOC(=O)CCC(=O)NCCN1CCN(c2ccccc2)CC1` returned an RP-LC retention time of 564 s.

Molecule `CCn1c(CCC(=O)NCc2ccc(F)cc2F)nc2c(C)cccc2c1=O` returned an RP-LC retention time of 872 s.

For `OC[C@@H]1CNC[C@H]1C1CCN(Cc2ccc(OC(F)(F)F)cc2)CC1`, the RP-LC retention time was 591 s.

Molecule `O=C(O)c1cnc(-c2ccccc2)nc1-c1ccncc1` had an RP-LC retention time of 653 s.

In turn, `CCOc1ccc(/C=C/c2nc(C#N)c(NCCN(C)C)o2)cc1` displayed an RP-LC retention time of 668 s.

The molecule `CN1CCCc2ccc(NC(=O)CC3CCCN(c4cn[nH]c(=O)c4)C3)cc21` (stereo unspecified) registered an RP-LC retention time of 638 s.

As to `CCCn1c(CCC(=O)Nc2ccc3c(c2)OCCO3)nc2cccnc21`, the RP-LC retention time came to 662 s.

For the molecule `COc1ccccc1/C=C/c1nc(C#N)c(NCCCN(C)C)o1`, the RP-LC retention time came to 658 s.

On to `Cn1c(=O)sc2cc(S(=O)(=O)N3CCC(C(=O)NCCc4cccs4)CC3)ccc21`, for which the RP-LC retention time was 813 s.

Turning to `O=C(COc1ccccc1)OCc1nc2ccccc2s1`, the RP-LC retention time was 929 s.

Turning to `Cc1cc(C)cc(C(=O)N2CCCC(C(=O)NCCN(C)C)C2)c1` (stereo unspecified), the RP-LC retention time was determined as 599 s.

`O=C(Cn1cnc2nc(N3CCC(C(=O)NC4CC4)CC3)sc2c1=O)Nc1cccc(Cl)c1` registered an RP-LC retention time of 679 s.

`Cc1cc2c(=O)n(CC(=O)Nc3cccc(C(C)C)c3)ccc2s1` had an RP-LC retention time of 904 s.

`COc1ccccc1CNC(=O)C1CCCN(c2nnc3ccc(Cl)cn23)C1` (stereo unspecified): the RP-LC retention time stood at 683 s.

In turn, `Cc1ccc(-n2nnc(C(=O)O)c2-c2ccccn2)c(F)c1` displayed an RP-LC retention time of 697 s.

`CCN1c2ccccc2C(=O)NC12CCN(C(=O)Nc1cccc(OC)c1)CC2` returned an RP-LC retention time of 703 s.

Molecule `CCCC(=O)Nc1nc(-c2ccc3c(c2)N(CC)C(=O)CO3)cs1` registered an RP-LC retention time of 853 s.

With `Cc1ccc(NC(=O)N2CCC(CCNC(=O)C3(c4ccccc4)CC3)CC2)cc1F`, the RP-LC retention time turned out to be 928 s.

`COc1ccc(C(=O)NCCc2nc3cccnc3n2C(C)C)cc1` displayed an RP-LC retention time of 649 s.

`CCCCc1nnc(NC(=O)C2CC(=O)N(CCc3c[nH]c4ccc(OC)cc34)C2)s1` (stereo unspecified): the RP-LC retention time amounted to 766 s.

`O=C(c1ccco1)C(C(c1cccc(Cl)c1)N1CCOCC1)N1CCOCC1` (stereo unspecified) registered an RP-LC retention time of 782 s.

Molecule `Cc1noc(C)c1CN1CCC(NC(=O)c2cc3ccccc3[nH]2)CC1` registered an RP-LC retention time of 621 s.

As to `Cc1cccc(NC(=O)CSc2cc(N3CCN(c4ccccc4F)CC3)ncn2)c1`, the RP-LC retention time amounted to 1110 s.

`CCn1ccc2sc(C)c(C(=O)N3CCN(c4ccc(F)cc4)CC3)c2c1=O` had an RP-LC retention time of 808 s.

In turn, `CC(C)(C)S(=O)(=O)c1ccc(N2CCN(Cc3ccccc3)CC2)nn1` had an RP-LC retention time of 566 s.

Regarding `O=C(Nc1c(-c2ccccc2)nc2ccc(Cl)cn12)c1ccc(F)cc1`, the RP-LC retention time was 750 s.

In turn, `CN1CCCCc2cc(C(=O)NCCN(C)C3CCCCC3)sc21` displayed an RP-LC retention time of 687 s.

`Cc1ccc(OCC(=O)Nc2nc(-c3ccccc3)cs2)c(Br)c1` displayed an RP-LC retention time of 1310 s.

In turn, `Cc1nc(-c2nc(-c3cccs3)cs2)cn1CC(=O)NCc1ccc(F)cc1` displayed an RP-LC retention time of 789 s.

`Cc1oc(C(C)C)nc1C(=O)NC1CCCCC1` displayed an RP-LC retention time of 1020 s.

The molecule `CC(C)CCNC(=O)Cn1c(=O)c2cccn2c2ccc(F)cc21` displayed an RP-LC retention time of 856 s.

`O=C(NCc1ccco1)C1CCN(C(=O)c2ncn3c2COC(c2ccc(F)cc2)C3)CC1` (stereo unspecified) showed an RP-LC retention time of 711 s.

Molecule `Cc1ccccc1C(=O)Nc1nc(-c2ccc3c(c2)NC(=O)C(C)O3)c(C)s1` (stereo unspecified) came in with an RP-LC retention time of 797 s.

In turn, `Cn1ncc2c(Nc3ccc(O)cc3)nc(Cl)nc21` showed an RP-LC retention time of 731 s.

For `COc1cc2c(cc1CNC(=O)c1ccco1)OCCCO2`, the RP-LC retention time was found to be 755 s.

On to `CCOc1ccccc1NC(=O)N1CCN(Cc2nc3cc(Cl)ccc3o2)CC1`, for which the RP-LC retention time was determined as 867 s.

For `Cc1ccc(-c2ccc(-n3nc(C)c(S(=O)(=O)NCCC(C)C)c3C)nn2)cc1`, the RP-LC retention time is 1210 s.

In the case of `Cn1c(C(=O)NCc2ccccc2Cl)cc2ccncc21`, the RP-LC retention time was found to be 643 s.

Regarding `CCCS(=O)(=O)N1CCc2ccc(NC(=O)Oc3ccccc3)cc2C1`, the RP-LC retention time was found to be 878 s.

`O=C(Nc1cccc(-c2cn3cccnc3n2)c1)c1cccc([N+](=O)[O-])c1` showed an RP-LC retention time of 687 s.

`O=C(c1cccc(-n2cnnn2)c1)N1CC(c2nc(-c3ccccn3)no2)C1` showed an RP-LC retention time of 648 s.

In turn, `CCc1ccccc1S(=O)(=O)N1CC=C(c2cn(C)c3ncccc23)CC1` displayed an RP-LC retention time of 1090 s.

As to `CCNS(=O)(=O)c1cccnc1Nc1ccc(Cl)cc1`, the RP-LC retention time came out at 1030 s.

On to `COc1ccc(OC)c(NC(=O)Nc2c(-c3cccc(C)c3)nc3ccccn23)c1`, for which the RP-LC retention time was 696 s.

`Cc1nn2c(CNS(=O)(=O)Cc3ccc(C)c(C)c3)c(-c3ccccc3)nc2s1` had an RP-LC retention time of 974 s.

In turn, `Cc1ccc2c(Nc3ccc(C)c(C)c3)c(C(=O)N3CCCC(C)C3)cnc2n1` (stereo unspecified) showed an RP-LC retention time of 681 s.

As to `Cc1nc(-c2csc(S(=O)(=O)N3CCCC(C(=O)Nc4c(C)cccc4C)C3)c2)no1` (stereo unspecified), the RP-LC retention time came out at 1060 s.

`COc1ccc(N2CC(c3nc(-c4ccc(Cl)cc4)no3)CC2=O)c(OC)c1` (stereo unspecified) displayed an RP-LC retention time of 1000 s.

As for `Cc1ccc(NC(=O)C(=O)c2ccc[nH]2)cc1F`, the RP-LC retention time is 917 s.

As to `O=C(CCNc1c(-c2cccc(F)c2)nc2cnccn12)NCc1cccc(Cl)c1`, the RP-LC retention time was found to be 772 s.

Regarding `Cc1nc(-c2csc(S(=O)(=O)N3CCCC(C(=O)Nc4ccccc4F)C3)c2)no1` (stereo unspecified), the RP-LC retention time was determined as 929 s.

As for `CCOC(=O)c1cccc(NC(=O)NC2COc3ccc(OC)cc3C2)c1` (stereo unspecified), the RP-LC retention time is 906 s.

The molecule `COc1ccc(CNC(=O)N2CC(c3nc(C)no3)C3(CCOCC3)C2)cc1` (stereo unspecified) showed an RP-LC retention time of 680 s.

On to `CCn1cc(C(=O)Nc2cc(C)cc(C)c2)c(S(=O)(=O)N2CCSCC2)n1`, for which the RP-LC retention time came to 944 s.

In turn, `O=C(c1ccc2ccccc2n1)N1CC(n2ccnc2)C1` gave an RP-LC retention time of 604 s.

`CCNc1nc(C)cc(N2CCN(C(=O)Nc3cc(Cl)ccc3OC)CC2)n1`: the RP-LC retention time was found to be 709 s.

For `CC(C)NC(=O)N1CCN(c2nc3ccccc3n(Cc3ccccc3)c2=O)CC1`, the RP-LC retention time is 912 s.

`COc1ccc(OC)c(-c2csc(-c3nnn(-c4cccc(Cl)c4)c3N)n2)c1` came in with an RP-LC retention time of 1180 s.

`COc1ccc(OC)c(Nc2nc(NCCO)c3cnn(C)c3n2)c1` had an RP-LC retention time of 609 s.

With `CC(C)NC(=O)N1CCN(Cc2nc3cc(C(C)(C)C)ccc3o2)CC1`, the RP-LC retention time was 712 s.

As for `O=C1NC2(CCN(C(=O)c3ccc(F)c(F)c3)CC2)Nc2c(Cl)cccc21`, the RP-LC retention time worked out at 777 s.

`COc1cc(C(=O)N2CCC(CC(=O)N3CCOCC3)CC2)cc(OC)c1OC` registered an RP-LC retention time of 618 s.

`Cc1cc(C(=O)NCCN2CCCCC2)c2cc(Br)ccc2n1` came in with an RP-LC retention time of 567 s.

`CCn1nccc1C(=O)NCC1Cn2cccc2C(=O)N1CC(C)C` (stereo unspecified) yielded an RP-LC retention time of 698 s.

On to `Cc1nn(-c2ccc(-c3ccccc3)nn2)c(C)c1S(=O)(=O)N1CCN(c2ccccn2)CC1`, for which the RP-LC retention time was determined as 776 s.

In the case of `O=C(CCc1cc(Cl)no1)N1CCCCC1c1noc(COCC2CC2)n1` (stereo unspecified), the RP-LC retention time turned out to be 934 s.

`O=C(c1ccc[nH]c1=O)N1CCC(Cn2c(COc3ccccc3)nc3ccccc32)CC1` gave an RP-LC retention time of 556 s.

`CCc1ccc(N2CC(c3noc(-c4ccc(C)cc4)n3)CC2=O)cc1` (stereo unspecified) came in with an RP-LC retention time of 1170 s.

`Cc1ccc(CNC(=O)Cn2c(C(C)C)nc3c(c2=O)CN(Cc2ccccc2)CC3)cc1` displayed an RP-LC retention time of 694 s.

The molecule `Cc1cc(C(=O)NCc2cccc(F)c2)nc2cc(-c3cccs3)nn12` yielded an RP-LC retention time of 1090 s.

As to `O=C(NCc1ccc(N2CCOCC2)cc1)c1cn2nc(Cl)ccc2n1`, the RP-LC retention time was determined as 656 s.

In turn, `CC(=O)N(Cc1nn(C)c2c1CN(Cc1cn[nH]c1-c1cccs1)CC2)c1ccccc1` yielded an RP-LC retention time of 589 s.

For the molecule `Cc1ccccc1-c1nc(C)c(C(=O)NC2CC2)s1`, the RP-LC retention time came to 863 s.

For `c1ccc(-c2nnc(-c3ccncc3)o2)cc1`, the RP-LC retention time was found to be 715 s.

Consider `CC(C)NC(=O)N1CC(c2nc(-c3ccccc3)no2)C2(CCOCC2)C1` (stereo unspecified), for which the RP-LC retention time came out at 715 s.

Turning to `CCOc1ccc(CC(=O)N2CCC3(CC2)Nc2cc(OC)ccc2-n2cccc23)cc1OCC`, the RP-LC retention time is 1030 s.

`CCn1cnc(S(=O)(=O)N2CCCC(C(=O)Nc3ccc(C)c(Cl)c3)C2)c1` (stereo unspecified) had an RP-LC retention time of 861 s.

`CNC(=O)c1cc(C(=O)c2ccc3nc(Nc4ccc(Cl)cc4)[nH]c3c2)ccn1` gave an RP-LC retention time of 669 s.

Source of the values: the METLIN SMRT retention time set (Domingo-Almenara et al. 2019).
